This passage reports zone of inhibition results from ChEMBL document CHEMBL3751812, “Novel skeleton compound Allomyrinanoid A and two purine alkaloids from the adult of Allomyrina dichotoma L” (2016).

Common to all, as to assay type: functional
What all share (conditions): read-out: DIZ

For test [1], the system named is Bacillus subtilis. Kind of test: Antibacterial activity against Bacillus subtilis assessed as growth inhibition at 10 mg/ml by drug sensitive assay.
In a further test the test system is Escherichia coli. Briefly: Antibacterial activity against Escherichia coli assessed as growth inhibition at 10 mg/ml by drug sensitive assay.
Test [2] has as its system Staphylococcus aureus. Briefly: Antibacterial activity against Staphylococcus aureus assessed as growth inhibition at 10 mg/ml by drug sensitive assay.
Test [3] relates to Bacillus subtilis. Briefly: Antibacterial activity against Bacillus subtilis assessed as growth inhibition at 1 mg/ml by drug sensitive assay.
Test [4] relates to Staphylococcus aureus. Kind of test: Antibacterial activity against Staphylococcus aureus assessed as growth inhibition at 1 mg/ml by drug sensitive assay.

As for `CNC(=O)[C@H]1CCC[C@@H](C(=O)O)[C@@H](C)[C@H](C)[C@H](C)[C@@H]1C`, the zone of inhibition at 10000 µg/mL with Bacillus subtilis [1] came out at 4.5 mm.

In the case of `Nc1ncnc2c1ncn2/C=N\O` (stereo in doubt; 2), the zone of inhibition at 10000 µg/mL in the test on Escherichia coli stood at 5.5 mm.

Regarding `CC1(C)S[C@@H]2[C@H](NC(=O)Cc3ccccc3)C(=O)N2[C@H]1C(=O)O` [PENICILLIN G], the values for the zone of inhibition at 10000 µg/mL in the test on Staphylococcus aureus [2] and in the test with Bacillus subtilis [1] were 17 mm and 18 mm, respectively. Moreover, the results for the zone of inhibition at 1000 µg/mL in the test on Bacillus subtilis [3] and with Staphylococcus aureus [4] were 10 mm and 9 mm, respectively.
